Reference: publication PMC4723341, “Ribonuclease H/DNA Polymerase HIV-1 Reverse Transcriptase Dual Inhibitor: Mechanistic Studies on the Allosteric Mode of Action of Isatin-Based Compound RMNC6” (PLoS ONE, 2016)

Assays:
[1] = molecular target: T1, HIV-1 RT-associated RDDP activity, G231A RT (Human immunodeficiency virus type 1 group M subtype B, UniProt P04585, G818A); assay: biochemical; design: species or system HIV-1 group M subtype B
T1 construct: The 1:1 ration between the p66/p51 subunits was also verified; made in house; host or cells: E. coli M15

[2] = UV spectra in the absence and presence of magnesium (chelating potential); format: physicochemical; details: in the presence of 6 mM MgCl2
Source text: Since the mode of action of previously identified dual RT inhibitors was not determined, we decided to investigate the mechanism of RT inhibition by RMNC6 in comparison with available RNase H inhibitors and NNRTIs. […] RNase H inhibitors such as vynologous ureas (VUs) are known to destabilize the RT heterodimer by binding to an allosteric pocket in the RNase H domain at the interface between p66 and p51 subunits.

[3] = molecular target: T2, HIV-1 RT-associated RDDP activity, K103N RT (Human immunodeficiency virus type 1 group M subtype B, UniProt P04585, K690N); assay: RDDP activity assay, K103N RT; format: biochemical, HIV-1 group M subtype B
T2 construct: The 1:1 ration between the p66/p51 subunits was also verified; made in house; host or cells: E. coli M15

[4] = molecular target: T3, HIV-1 RT-associated RDDP activity, V108A RT (Human immunodeficiency virus type 1 group M subtype B, UniProt P04585, V695A); assay: biochemical; design: species or system HIV-1 group M subtype B
T3 construct: The 1:1 ration between the p66/p51 subunits was also verified; made in house; host or cells: E. coli M15

[5] = molecular target: T4, HIV-1 RT-associated RDDP activity, N474A RT (Human immunodeficiency virus type 1 group M subtype B, UniProt P04585, N1061A); assay: biochemical; design: species or system HIV-1 group M subtype B
T4 construct: The 1:1 ration between the p66/p51 subunits was also verified; made in house; host or cells: E. coli M15

[6] = molecular target: T5, HIV-1 RT-associated RDDP activity, Y188L RT (Human immunodeficiency virus type 1 group M subtype B, UniProt P04585, Y775L); assay: RDDP activity assay, Y188L RT; format: biochemical, HIV-1 group M subtype B
T5 construct: The 1:1 ration between the p66/p51 subunits was also verified; made in house; host or cells: E. coli M15

[7] = molecular target: T6, HIV-1 RT-associated RDDP activity, M230A RT (Human immunodeficiency virus type 1 group M subtype B, UniProt P04585, M817A); assay: biochemical; design: species or system HIV-1 group M subtype B
T6 construct: The 1:1 ration between the p66/p51 subunits was also verified; made in house; host or cells: E. coli M15

[8] = system: HIV-1 RT-associated RDDP activity, M230A RT; assay: biochemical; design: species or system HIV-1 group M subtype B; details: M230A RT
[9] = molecular target: T7, HIV-1 RT-associated RDDP activity, A508V RT (Human immunodeficiency virus type 1 group M subtype B, UniProt P04585, A1095V); assay: biochemical; design: species or system HIV-1 group M subtype B
T7 construct: The 1:1 ration between the p66/p51 subunits was also verified; made in house; host or cells: E. coli M15

[10] = system: HIV-1 RT-associated RDDP activity, L228A RT; assay: biochemical; design: species or system HIV-1 group M subtype B; details: L228A RT
[11] = molecular target: T8, HIV-1 RT-associated RDDP activity, L228A RT (Human immunodeficiency virus type 1 group M subtype B, UniProt P04585, L815A); assay: biochemical; design: species or system HIV-1 group M subtype B
T8 construct: The 1:1 ration between the p66/p51 subunits was also verified; made in house; host or cells: E. coli M15

[12] = system: HIV-1 RT-associated RDDP activity, Y188A RT; assay: biochemical; design: species or system HIV-1 group M subtype B; details: Y188A RT
[13] = molecular target: T9, HIV-1 RT-associated RDDP activity, Y188A RT (Human immunodeficiency virus type 1 group M subtype B, UniProt P04585, Y775A); assay: biochemical; design: species or system HIV-1 group M subtype B
T9 construct: The 1:1 ration between the p66/p51 subunits was also verified; made in house; host or cells: E. coli M15

[14] = molecular target: T10, HIV-1 RT-associated RDDP activity, P225A RT (Human immunodeficiency virus type 1 group M subtype B, UniProt P04585, P812A); assay: biochemical; design: species or system HIV-1 group M subtype B
T10 construct: The 1:1 ration between the p66/p51 subunits was also verified; made in house; host or cells: E. coli M15

[15] = molecular target: T11, HIV-1 RT-associated RDDP activity, A502F RT (Human immunodeficiency virus type 1 group M subtype B, UniProt P04585, A1089F); assay: biochemical; design: species or system HIV-1 group M subtype B
T11 construct: The 1:1 ration between the p66/p51 subunits was also verified; made in house; host or cells: E. coli M15

[16] = molecular target: T12, HIV-1 RT-associated RDDP activity, Y181C RT (Human immunodeficiency virus type 1 group M subtype B, UniProt P04585, Y768C); assay: RDDP activity assay, Y181C RT; format: biochemical, HIV-1 group M subtype B
T12 construct: The 1:1 ration between the p66/p51 subunits was also verified; made in house; host or cells: E. coli M15

[17] = molecular target: T13, HIV-1 RT-associated RDDP activity, Y501A RT (Human immunodeficiency virus type 1 group M subtype B, UniProt P04585, Y1088A); assay: biochemical; design: species or system HIV-1 group M subtype B
T13 construct: The 1:1 ration between the p66/p51 subunits was also verified; made in house; host or cells: E. coli M15

HIV-2 RT = system: HIV-2 RT; design: method as in PMID 15741178; details: HIV-2 RT versus HIV-1 RT; cited from earlier work

In the case of `N#Cc1ccc(-c2csc(NN=C3C(=O)Nc4ccccc43)n2)cc1` [RMNC6, (Z)-4-(2-(2-(2-oxoindolin-3-ylidene)hydrazinyl)thiazol-4-yl)benzonitrile], the IC50 [1] is reported as 10.8 ± 2.4 µM, the “Fold of increase of RDDP IC50 with respect to wt RT” value (from here on “Fold of increase of RDDP IC50”) ([1]; G231A RT) is reported as 1.1 and the “Shift of maximum of absorbance (UV spectra)” value [2] is reported as “did not shift”. The IC50 [3] was 13.6 ± 1 µM, the IC50 [4] was 33 ± 5.2 µM and the “Fold of increase of RDDP IC50” value ([4]; V108A RT) was 3.4. For the same molecule, the IC50 [5] was 12.7 ± 1.7 µM, the “Fold of increase of RDDP IC50” value ([5]; N474A RT) was 1.3 and the IC50 [6] was 16.5 ± 3.7 µM. For the same molecule, the IC50 [7] was 15 ± 3.5 µM, the “Fold of increase of RDDP IC50” value [8] was 1.5 and the IC50 [9] was 19.3 ± 2.8 µM. The “Fold of increase of RDDP IC50” value ([9]; A508V RT) was 2.0, the “Fold of increase of RDDP IC50” value [10] was 1.3 and the IC50 [11] was 13.1 ± 1.9 µM. For the same molecule, the “Fold of increase of RDDP IC50” value [12] was 2.1, the IC50 [13] was 20.9 ± 4 µM and the IC50 [14] was 3.1 ± 0.3 µM. For the same molecule, the “Fold of increase of RDDP IC50” value ([14]; P225A RT) was 0.3, the IC50 [15] was 17.1 ± 2.1 µM and the “Fold of increase of RDDP IC50” value ([15]; A502F RT) was 1.8. For the same molecule, the IC50 [16] was 5.4 ± 0.3 µM, the IC50 [17] was 6.6 ± 0.1 µM and the “Fold of increase of RDDP IC50” value ([17]; Y501A RT) was 0.7.

In the case of `CC(C)c1ccc(O)c(=O)c(O)c1` [BTP, β-thujaplicinol, reference compound], the “Times less susceptible than the HIV-1 enzyme” value (HIV-2 RT) is listed as “about 3.7”.
